Consider 72 compounds from PubChem BioAssay AID1035470 (Broad Institute, 2014).

In general, AC50 refers to the concentration at which the activity in the assay is half-maximal.

Results filed as inconclusive are left out. Active and inactive are the calls of the source.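 How the source made its calls: active means compound lowering the normal-ribosome reporter at least twice as much as the humanized-ribosome reporter, growth loss under a set limit; inconclusive means no clear call, values can overlap the other calls; inactive means the rest.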

The assay deals with E. coli WT-GFP vs G2058-humanized RFP, fluorescence, 24 h. The experiment in a line: growth inhibition of wild-type GFP E. coli versus G2058-humanized strain, dose response, G2058 mutant RFP vs wild-type GFP, cherry-pick, two tests (AID 1035470).
Setting [1] is: E. coli WT-GFP vs G2058-humanized RFP mixed culture, total growth OD600, 24 h.
Where [2] appears, read: measured here: G2058 humanized mutant RFP growth.

Regarding `O=C(CSCc1cnn(-c2ccccc2)c1-n1cccc1)NCc1cccnc1`, under setting [1], the AC50 is over 100 µM. Regarding `CC(C)C[C@@H](CSc1ccccc1)N1CCN(CC(C)C)CCC1=O`, the AC50 was > 100 µM (inactive). This compound yielded a concentration at half-maximal activity (AC50) under setting [1] of over 100 µM.

Take `CN1OC[C@@H]2CN(C(=O)c3ccco3)[C@H](c3ccc(-c4ccc(C#N)cc4)cc3)C[C@@H]21`: the AC50 was > 100 µM (inactive). This compound showed a concentration at half-maximal activity (AC50) under setting [1] of over 100 µM. On to `CC1CCN(c2ccc3nnc(CCC(=O)Nc4cccc(F)c4)n3n2)CC1`, for which the AC50 was > 100 µM (inactive). Under setting [1], this compound yielded a half-maximal activity concentration (AC50) of over 100 µM. Turning to `NC(=O)c1ccsc1NC(=O)COC(=O)Cc1ccc(F)cc1`, the AC50 was > 100 µM (inactive). This compound also returned a concentration at half-maximal activity (AC50) under setting [2] of over 100 µM. For `COc1ccccc1CNC(=O)CN1C(=O)NC(c2ccccc2)(c2ccccc2)C1=O`, the AC50 was > 100 µM (inactive). Further, the concentration at half-maximal activity (AC50) under setting [1] was over 100 µM. As for `Cc1ccc(C)c(-c2[nH]ncc2CN2CCCC(CO)(Cc3ccccc3C)C2)c1` (stereo unspecified), the AC50 was > 100 µM (inactive). Under setting [1], this compound registered an AC50 of over 100 µM. Take `CN(Cc1nnc(-c2ccc(F)cc2)o1)c1ccccc1`: the AC50 was > 100 µM (inactive). In addition, under setting [1], the concentration at half-maximal activity (AC50) was over 100 µM. `O=C(O)c1ccccc1-c1ccccc1C(=O)Nc1ccc2c(c1)CCC2`: the AC50 was > 100 µM (inactive). With `Nc1ccccc1Sc1c[nH]c2ccccc12`, the AC50 is > 100 µM (inactive). Under setting [1], this compound returned an AC50 of over 100 µM. Take `COc1ccc(C2CC(=O)Oc3cc(C)cc(C)c32)cc1` (stereo unspecified): the AC50 is > 100 µM (inactive). Under setting [2], `O=C(O)CC(CC(=O)Nc1ccc2ccccc2n1)c1ccccc1` (stereo unspecified) registered an AC50 of over 100 µM. As for `CCCCCc1nnc(NC(=O)C2COc3ccccc3O2)s1` (stereo unspecified), the AC50 is > 100 µM (inactive). Under setting [1], this compound yielded an AC50 of over 100 µM. Also, the AC50 under setting [2] came to 23.2 µM. Consider `CCn1cc(Br)c(C(=O)Nc2ccc(C(=O)OC(C)C)cc2)n1`, for which the AC50 is > 100 µM (inactive). Take `CCOc1ccc2nc(NC(=O)CSc3nc(SC)ns3)sc2c1`: the AC50 was > 100 µM (inactive). The AC50 under setting [1] is over 100 µM. Take `O=[N+]([O-])c1cncc([N+](=O)[O-])c1Nc1cccc(O)c1`: the AC50 is > 100 µM (inactive). Under setting [1], this compound yielded an AC50 of over 100 µM. `CC(=O)Nc1cccc(OCCCOc2cccc([N+](=O)[O-])c2)c1`: the AC50 is > 100 µM (inactive). In addition, the AC50 under setting [1] is over 100 µM. For the compound `CC(C)Nc1nnc(SCC(=O)Nc2sccc2C#N)s1`, the AC50 was > 100 µM (inactive). In the case of `O=S(=O)(NC1c2cccc3cccc(c23)C1Sc1ncccn1)c1ccccc1` (stereo unspecified), the AC50 was > 100 µM (inactive). Also, the AC50 under setting [1] is 3.21 µM. `O=C(c1ccc(Cl)cc1)C1CCCN(Cc2cccc3cnccc23)C1` (stereo unspecified) returned an AC50 under setting [2] of over 100 µM. Consider `Cc1cccc(Nc2nc(-c3ccc(F)cc3)cs2)n1`, for which the AC50 is > 100 µM (inactive). The concentration at half-maximal activity (AC50) under setting [1] was over 100 µM. For the compound `CCCN1C(=O)C(O)(c2c(C)[nH]c3ccccc23)c2ccccc21` (stereo unspecified), the AC50 under setting [1] was over 100 µM.

As to `COc1cccc(NC(=O)C(C)SCc2ccccc2)c1` (stereo unspecified), the half-maximal activity concentration (AC50) under setting [1] is over 100 µM. As to `Cc1cc([N+](=O)[O-])nn1CC(=O)Nc1cc(F)ccc1F`, the AC50 is > 100 µM (inactive). For `COc1ccc(NC(=O)Nc2cccc3c2O[C@H](CN(C)S(=O)(=O)c2ccc(Cl)cc2)[C@@H](C)CN([C@H](C)CO)C3=O)cc1`, the AC50 is > 100 µM (inactive).

Turning to `O=C(C[C@H]1CC[C@H](NC(=O)Nc2ccccc2F)[C@H](CO)O1)NCc1ccc(-c2ccccc2)cc1`, the AC50 is > 100 µM (inactive). Besides, the concentration at half-maximal activity (AC50) under setting [1] was over 100 µM.

For the compound `O=C(Nc1cccc(Cl)c1)N1C[C@H]2[C@@H](c3ccccc31)[C@H](CO)N2Cc1ccncc1`, the AC50 was > 100 µM (inactive). As for `COc1cccc(C(=O)C2CCCN(C/C=C/c3ccccc3OC)C2)c1` (stereo unspecified), the AC50 is > 100 µM (inactive). Under setting [2], this compound showed a concentration at half-maximal activity (AC50) of over 100 µM. For `CCOc1ccccc1NC(=O)c1cc(SC)ccc1Cl`, the AC50 is > 100 µM (inactive). For the same compound, the half-maximal activity concentration (AC50) under setting [1] was over 100 µM.

With `Nc1ccccc1Sc1ccc(C(F)(F)F)cc1[N+](=O)[O-]`, the AC50 is > 100 µM (inactive). The same compound came in with a half-maximal activity concentration (AC50) under setting [1] of over 100 µM. The AC50 under setting [2] is over 100 µM. `O=C(Nc1cccc(Oc2ccc3c(c2)C(=O)NC3=O)c1)c1cccs1`: the AC50 is > 100 µM (inactive).

Turning to `O=C(Nc1cccnc1)c1ccc([N+](=O)[O-])o1`, the AC50 is > 100 µM (inactive). This compound also displayed an AC50 under setting [1] of over 100 µM. In the case of `O=C(NC1CCCC(C(F)(F)F)C1)c1ccc([N+](=O)[O-])o1` (stereo unspecified), the AC50 is > 100 µM (inactive).

As to `Cc1ccc(S(=O)(=O)N2CC(=O)Nc3ccccc32)cc1C`, the AC50 is > 100 µM (inactive). This compound also yielded an AC50 under setting [1] of over 100 µM.

Under setting [1], `CC(C)(Nc1ccccc1)C(=O)c1ccccc1` yielded an AC50 of over 100 µM. `C=C1c2cc3c(cc2NC(=S)N1Cc1ccccc1)OCO3`: the AC50 under setting [1] is over 100 µM. For `C=CCn1c(C)cc(C(=O)COC(=O)CNC(=O)c2ccccc2)c1C`, the AC50 was > 100 µM (inactive).

For the compound `c1ccc(CSCc2ccccc2)cc1`, the AC50 under setting [2] was over 100 µM.

Regarding `O=C(Nc1ccc(Br)cc1)c1cccnc1N1CCCCC1`, the AC50 is > 100 µM (inactive). The compound also showed a half-maximal activity concentration (AC50) under setting [1] of over 100 µM. As for `CC1C=Cc2ccccc2N1C(=O)c1ccccc1` (stereo unspecified), the AC50 is > 100 µM (inactive). For the compound `Cc1nnc2sc(SCC(=O)Nc3ccc(Br)cc3)nn2c1=O`, the AC50 was > 100 µM (inactive). The compound further registered an AC50 under setting [2] of over 100 µM. Regarding `CCOc1ccc(S(=O)(=O)N(C)c2ccc(OCC(=O)NCc3cccnc3)cc2)cc1`, the AC50 is > 100 µM (inactive). Also, under setting [1], the AC50 was over 100 µM. Turning to `CCCNc1ccc(C(=O)OCC)cc1[N+](=O)[O-]`, the AC50 is > 100 µM (inactive). Besides, the AC50 under setting [1] is over 100 µM. In the case of `NC(=O)CSc1nc2cc([N+](=O)[O-])ccc2n1-c1cccc(C(F)(F)F)c1`, the AC50 is > 100 µM (inactive). This compound also displayed a half-maximal activity concentration (AC50) under setting [1] of over 100 µM. Turning to `CCn1nc(C(=O)OCc2cccc(S(=O)(=O)N(C)C)c2)c2ccccc2c1=O`, the AC50 was > 100 µM (inactive). For the compound `COc1ccc(Nc2nc(N)c([N+](=O)[O-])c(N3CCOCC3)n2)cc1`, the AC50 was > 100 µM (inactive). Moreover, the AC50 under setting [1] is over 100 µM. Take `COc1ccc(C(=O)C[n+]2ccc3c(c2)nc(-c2cc(OC)c(OC)cc2OC)n3C)cc1`: under setting [1], the half-maximal activity concentration (AC50) is over 100 µM. As to `COc1ccc(OC)c(-c2nn(-c3ccccc3)cc2C(=O)N2CCc3ccccc3C2)c1`, the concentration at half-maximal activity (AC50) under setting [1] is over 100 µM. Turning to `CCCCNC(=O)c1onc(CSc2cc(C)cc(C)c2)c1C(=O)O`, the AC50 is > 100 µM (inactive). The compound also showed a half-maximal activity concentration (AC50) under setting [1] of 37.3 µM. For the compound `FC(F)(F)c1ccc(Cl)c(-n2c(Cc3cccs3)n[nH]c2=S)c1`, the AC50 is > 100 µM (inactive). Regarding `CC1CCC2(CC1)SCC(=O)N2c1ccc(F)cc1` (stereo unspecified), the AC50 was > 100 µM (inactive). This compound returned an AC50 under setting [1] of over 100 µM. Under setting [2], this compound registered a half-maximal activity concentration (AC50) of 35.3 µM. Take `Cc1ccc(C2NC(=O)c3[nH]nc(-c4ccccc4)c32)cc1` (stereo unspecified): the AC50 is > 100 µM (inactive). The same compound registered an AC50 under setting [1] of over 100 µM. Take `Cc1onc(-c2ccccc2Cl)c1C(=O)Nc1ccc(Cl)cn1`: the half-maximal activity concentration (AC50) under setting [1] was over 100 µM. Consider `Cc1cccc(SCC(=O)Nc2ccccc2[N+](=O)[O-])c1`, for which the AC50 was > 100 µM (inactive). Also, under setting [1], the AC50 is over 100 µM. `C=CCn1c(C)cc(C(=O)CSc2nnc(C3CC3)n2C2CC2)c1C` displayed a half-maximal activity concentration (AC50) under setting [2] of 48.6 µM.

With `Cc1ccccc1NS(=O)(=O)c1cc(C(=O)NCCC2=CCCCC2)ccc1C`, the AC50 is > 100 µM (inactive). For the compound `COc1ccc(CN2CCC3CC2c2cc(Cl)ccc23)cc1` (stereo unspecified), the AC50 was > 100 µM (inactive). Still for that read-out and setting: the figure for `COc1ccc(-c2nc3ccc(Cl)cn3c2Cc2cccc(F)c2)cc1OC` is > 100 µM (inactive). As for `COC(=O)CC1COc2ccccc2N1C(=O)c1ccc(Br)cc1` (stereo unspecified), the AC50 is > 100 µM (inactive). The compound further came in with an AC50 under setting [1] of over 100 µM. `COC(=O)c1c(NC(=O)CCC(=O)O)sc(Cc2ccccc2)c1C`: the AC50 is 28.4 µM. Further, where the note is “E. coli WT-GFP vs G2058-humanized RFP mixed culture, OD600 growth, 24 h, test 1”, the concentration at half-maximal activity (AC50) came to 27 µM. This compound gave a half-maximal activity concentration (AC50) under setting [1] of 35.7 µM. In addition, the AC50 under setting [2] turned out to be 5.11 µM. For the setting “measured here: mutant RFP, test 1”, the AC50 amounted to 11.9 µM. For the same compound, for the setting “measured here: wild-type GFP, test 1”, the half-maximal activity concentration (AC50) came out at 1.53 µM.

Regarding `CC(C)Oc1ccc(C(CC(=O)O)NC(=O)C(Sc2ccccc2)c2ccccc2)cc1` (stereo unspecified), the AC50 was > 100 µM (inactive). In the case of `O=C(CN1C(=O)c2ccccc2C1=O)Nc1cccc(S(=O)(=O)Nc2ccccc2Cl)c1`, the AC50 is > 100 µM (inactive). For the same compound, the half-maximal activity concentration (AC50) under setting [1] is over 100 µM. The like results for `CCn1ccnc1CN1CCCC(C(=O)c2ccc3cc(OC)ccc3c2)C1` (stereo unspecified) were, in that order, > 100 µM (inactive) and over 100 µM. `Cc1ccc(-c2c(=O)n(O)c3ccccc3[n+]2[O-])cc1` yielded an AC50 under setting [2] of over 100 µM.

For `COC(=O)C1CCN(C(=O)c2ccc(OC)c(S(=O)(=O)N3CCCc4ccccc43)c2)CC1`, the AC50 was > 100 µM (inactive). Consider `COC(=O)c1ccc(CN2CCCC(CO)(Cc3ccccc3F)C2)cc1` (stereo unspecified), for which the AC50 was > 100 µM (inactive). Further, the concentration at half-maximal activity (AC50) under setting [1] was over 100 µM.

In the case of `O=C(CC1C(=O)N(c2ccc(Cl)cc2)C(=S)N1CCc1ccncc1)Nc1ccc(F)cc1` (stereo unspecified), the AC50 was > 100 µM (inactive). Under setting [1], this compound registered an AC50 of 41.8 µM.

As to `C=CCN(c1ccccc1)S(=O)(=O)c1ccc(Cl)c(C(=O)OCC(=O)NCCCN2CCCC2=O)c1`, the AC50 under setting [1] was over 100 µM. On to `COc1cc(OC)cc(C(=O)Nc2ccc(S(=O)(=O)Nc3cnc4ccccc4n3)cc2)c1`, for which the AC50 is > 100 µM (inactive). With `Cc1cccc(C)c1-n1nnnc1C1(C)CCC(=O)N1Cc1cccs1` (stereo unspecified), the AC50 was > 100 µM (inactive). On to `COC(=O)c1ccc(CCc2cc(O)c(Br)cc2O)cc1`, for which the half-maximal activity concentration (AC50) under setting [1] is over 100 µM. For `Cc1cc(NC(=O)CCCn2cc([N+](=O)[O-])cn2)n(Cc2ccc(F)cc2)n1`, the AC50 is > 100 µM (inactive). Also, the AC50 under setting [1] was over 100 µM.
